In test [1] the test system is L-selectin. In words: ELISA: inhibition of L-selectin-IgG chimera binding to 2,3 sLe^x glycolipid. More on the design: species or system human. The source says: An ELISA assay is preferably used that employs recombinant fusion proteins composed of extracellular portions of the human selectins joined to human immunoglobulin heavy chain CH3, CH2, and hinge regions. See, for example, Walz et al., Science (1990) 250:1132; Aruffo et al., Cell (1991) 67:35; Aruffo et al., Proc. Natl. Acad. Sci. USA. (1992) 89:2292. The assay is well known in the art, and generally consists of the following three steps:
I. 2,3 sLe^x glycolipid (25 picomole/well) was transferred into microtiter wells as solutions and then evaporated off. Excess, which remained unattached, was washed off with water. The wells were then blocked with 5% BSA at room temperature for an hour and then washed with PBS containing 1 mM calcium.
II. Preparation of "multivalent" receptor of the Selectin-lgG chimera was carried out by combining the respective chimera (1 μg/mL) with biotin labelled goat F(ab')2 anti-human IgG (Fc specific) and streptavidin-alkaline phosphatase diluted 1:1000 in 1% BSA-PBS (1 mM calcium) and incubating at 37° C. for 15 min. This allowed the soluble multivalent receptor complex to form. III. Potential inhibitors such as the compounds of formula I or II were allowed to react with the soluble receptor at 37° C. for 45 min. This test assumes that optimal binding, between the soluble phase receptor complex and the inhibitor (non natural ligand), would have occurred within this time frame. This solution was then placed in the microtiter wells that were prepared in step I. The plate was incubated at 37° C. for 45 minutes to allow the soluble receptor to bind to its natural ligand. In the presence of a strong inhibitor only a few receptors should be free to bind to the microtiter plate coated with the natural ligand.
The positive control is the signal produced by the soluble receptor when it is allowed to react with 2,3 sLe^x glycolipid in the microtiter wells in the absence of any inhibitor. This positive control was considered 100% binding. The signal produced by the receptor that had been previously treated with an inhibitor (recorded as O.D.), was divided by the signal produced by the positive control and multiplied by 100 to calculate the % receptor bound to the well in the presence of the inhibitor. The reciprocal of this number is the % inhibition.
An ELISA assay was employed that uses recombinant fusion proteins composed of extracellular portions of the human selectins joined to human immunoglobulin heavy chain CH3, CH2, and hinge regions. See, for example, Walz et al., Science (1990) 250:1132; Aruffo et al., Cell (1991) 67:35; Aruffo et al., Proc. Natl. Acad. Sci. USA (1992) 89:2292. The assay is well known in the art, and generally consists of the following three steps:
II. Preparation of "multivalent" receptor of the Selectin-IgG chimera was carried out by combining the respective chimera 1 μg/ml) with biotin labelled goat F(ab')2 anti-human IgG (Fc specific) and streptavidin-alkaline phosphatase diluted 1:1000 in 1% BSA-PBS (1 mM calcium) and incubating at 37° C. for 15 min. This allowed the soluble multivalent receptor complex to form.
III. Potential inhibitors such as compounds of formula I or II were allowed to react with the soluble receptor at 37° C. for 45 min. This test assumes that optimal binding, between the soluble phase receptor complex and the inhibitor (non natural ligand), would have occurred within this time frame. This solution was then placed in the microtiter wells that were prepared in step I. The plate was incubated at 37° C. for 45 minutes to allow the soluble receptor to bind to its natural ligand. In the presence of a strong inhibitor only a few receptors should be free to bind to the microtiter plate coated with the natural ligand.
The positive control is the signal produced by the soluble receptor when it is allowed to react with 2,3 sLe^x glycolipid in the microtiter wells in the absence of any inhibitor. This was considered 100% binding. […]
On the technique in general: ELISA stands for enzyme-linked immunosorbent assay.

The subject of test [2] is P-selectin. In words: Flow cytometric assay: inhibition of P-selectin-IgG binding to HL-60 cells. Format: cell-based, human. On the set-up: unit of the concentration uncertain. The procedure:
The interaction of P-selectin and its cellular ligand was studied using a flow cytometric assay (Erbe, D. V. et al., J. Cell Biol. (1993) 120:1227). HL60 cells (maintained in high glucose DME plus 10% Hyclone FBS) were used in this assay. Before staining with P-selectin-IgG the cells were preincubated in Dulbecco's PBS/1% BSA/0.1% sodium azide/1% normal rabbit serum (staining medium) for 30-60 mins on ice. After this initial incubation, 1 μg of P-selectin-IgG was added to 100 μl aliquots of 10^6 cells and incubated for 30-60 mins on ice. The cells were when washed with staining medium and resuspended in 100 μl of staining medium to which was added 2 μl of a phycoerythrin-conjugated F(ab')^2 goat anti-human IgG (Fc specific). The cells were incubated for 15-30 mins on ice, washed twice with staining medium, and resuspended in 0.5 ml of staining medium before flow cytometric analysis on a FACScan (Becton Dickinson & Co., Mountain View, Calif.). To determine that the staining was an interaction of P-selectin with its ligand, the staining was also done in the presence of 10 mM EGTA. To determine the protease sensitivity and the requirement for sialic acid of this interaction, HL-60 cells in D-PBS and 1% BSA were incubated with either trypsin or Arthrobacter or Clostridium sialidases at 37° C. before resuspending in staining medium. To examine the ability of various carbohydrates to inhibit staining, 50 μg/ml fucoidin (Sigma Immunochemicals, St. Louis, Mo.), 50 μg/ml dextran sulfate (Pharmacia Fine Chemicals, Piscataway, N.J.), 10 mg/ml mannose-1-phosphate (Sigma Immunochemicals), or 10 mg/ml mannose-6-phosphate (Sigma Immunochemicals) was added to cells immediately before the addition of the P-selectin chimera. Each carbohydrate was then present until the cells were washed before the addition of the second stage antibody. A potential complication of this FACS assay arose from the use of selectin-IgG chimeras to stain cells which bear human IgG Fc receptors (FcγR; Fanger, M. W., et al., Immunol. Today (1989) 10:92). Adding rabbit IgG (in the form of normal rabbit serum) to the assay medium blocked this binding in most cases.
(In general: Flow cytometry measures light scatter and fluorescence of single cells or particles in a stream.)

pIC50: −log10 of the molar value.

The pIC50 is the negative decadic logarithm of the IC50, by convention in mol/L. For the compound `CC(=O)NC1C(O)CC(OCCCCCCOC2OC(C)C(O)C(O)C2O)(C(=O)O)OC1C(O)C(O)CO` [Compound 7, 1-O-α-Neu5Ac-(6-O-α-L-Fucopyranosyl)-Hexane], the “inhibition of L-selectin binding to 2,3 sLe^x glycolipid” value in test [1] (FIG. 5 and FIG. 6, result in words) was “inhibit L-selectin binding in a concentration dependent manner”. In test [1] (inhibition of binding to 2,3 sLex glycolipid), the pIC50 was 2.52 to 3.00. The “Inhibition (%) of P-selectin-IgG binding to HL-60 cells” value in test [2] (10 (unit uncertain)) was 60%; in test [2] (50 (unit uncertain)), 80%; in test [2] (100 (unit uncertain)) it was 80%.
